Test [1] has as its system ppMlc (T18/S19) levels in A7R5 cells. Nature of the test: A7R5 in-cell ELISA (pMLC). The test is classed as cell-based, Rat. Summed up:
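A7R5 rat aortic smooth muscle cells seeded 24 h, then treated 90 min with a 9-point 2-fold compound dilution series. Fixed cells probed for ppMlc (T18/S19) by colorimetric in-cell ELISA; cellular IC50 from nonlinear regression curve fit.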

Test [2] has as its target Recombinant ROCK2 (amino acids 1-552) (Homo sapiens (Human), UniProt O75116). The experiment in a line: Z′-Lyte kinase assay, ROCK2. As to conditions: for inhibition at 0.5 µM: 0.5 μM compound; for inhibition at 0.5 µM / inhibition at 3 µM: read-out: ROCK2 % inh. @ [conc]; for inhibition at 3 µM: 3 μM compound. Type of test: biochemical. Summed up: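 Recombinant human ROCK1 (aa 1-535) or ROCK2 (aa 1-552) activity read by Z′-Lyte kinase assay. Percent inhibition at 1 μM compound was normalized to DMSO control; IC50 from 9-point 2-fold serial dilutions by nonlinear regression.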

Test [3] has as its target Recombinant ROCK1 (amino acids 1-535) (Homo sapiens (Human), UniProt Q13464). The experiment in a line: Z′-Lyte kinase assay, ROCK1. Type of test: biochemical. The settings on record: for inhibition at 0.5 µM: 0.5 μM compound; for inhibition at 0.5 µM / inhibition at 3 µM: read-out: ROCK1 % inh. @ [conc]; for inhibition at 3 µM: 3 μM compound. As for the experimental part: Determination of Compound's ROCK Inhibitory Activity In Vitro (Z'Lyte Assay).
Recombinant ROCK1 (amino acids 1-535) and ROCK2 (amino acids 1-552) proteins were purchased from ThermoFisher Scientific. Compound's activities were measured by Z′-lyte kinase kit (ThermoFisher Scientific) and IC50 was calculated
In vitro activities for the compounds were measured with Z′-lyte kinase kit (ThermoFisher Scientific). The percent inhibition rate was calculated by normalizing the kinase activity value obtained with 1 μM compound treatment against DMSO control value and then applied to the formula, [1-(compound/DMSO)]×100%. IC50s were calculated using the nonlinear regression curve fit function of the GraphPad Prism software with kinase activities data measured with 9 points 2-fold serial dilution of compounds treatment. In cell pMLC IC50s were calculated with data obtained from A7R5 cell experiments. A7R5 cells were treated with 9 points 2-fold serial dilution of compounds and ppMlc (T18/S19) levels were determined to calculate cellular IC50 values of the compounds using the nonlinear regression curve fit function of the GraphPad Prism software. NIH3T3 cells stably expressing ACTA2-promoter-driven-luciferase were applied to measure ROCK compounds functional IC50s in cells. Cells were plated in 96 well plates to confluence and treated with 9 points serial dilution of compounds in combination with TGFβ1 for 24 hr. Luciferase activities were measured and compound's IC50s were calculated using the nonlinear regression curve fit function of the GraphPad Prism software.

Where [4] appears, read: Rattus norvegicus, A7R5, A7R5 cells, 10 μM compound, read-out: pMLC % inh A7R5 @ [conc].
The mark [5] stands for this setting: Rattus norvegicus, A7R5, A7R5 cells, ppMlc (T18/S19).
The mark [6] stands for this setting: 9 points 2-fold serial dilution.
Setting [7] is: Rattus norvegicus, A7R5, A7R5 cells.

Where “and” joins values, the source holds several entries; their conditions need not be identical. Equal entries are not always repeated. Where two headings read alike, the source gives them in different places.

Chain of Recombinant ROCK1 (amino acids 1-535) (Q13464 1-535): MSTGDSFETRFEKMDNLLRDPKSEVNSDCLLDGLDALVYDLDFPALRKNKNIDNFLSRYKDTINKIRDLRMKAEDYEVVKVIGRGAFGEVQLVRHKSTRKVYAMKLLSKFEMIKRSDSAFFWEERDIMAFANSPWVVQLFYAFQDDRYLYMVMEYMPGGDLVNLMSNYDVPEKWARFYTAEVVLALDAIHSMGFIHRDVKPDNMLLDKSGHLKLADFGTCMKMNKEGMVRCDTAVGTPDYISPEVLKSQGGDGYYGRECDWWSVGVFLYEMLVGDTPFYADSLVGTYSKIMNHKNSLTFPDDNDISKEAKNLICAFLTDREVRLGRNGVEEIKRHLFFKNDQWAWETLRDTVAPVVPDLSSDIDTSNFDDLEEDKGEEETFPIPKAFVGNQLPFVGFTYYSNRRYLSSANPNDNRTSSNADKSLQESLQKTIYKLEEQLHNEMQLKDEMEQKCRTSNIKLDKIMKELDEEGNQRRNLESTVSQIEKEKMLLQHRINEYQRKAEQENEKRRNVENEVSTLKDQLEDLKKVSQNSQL
Chain of Recombinant ROCK2 (amino acids 1-552) (O75116 1-552): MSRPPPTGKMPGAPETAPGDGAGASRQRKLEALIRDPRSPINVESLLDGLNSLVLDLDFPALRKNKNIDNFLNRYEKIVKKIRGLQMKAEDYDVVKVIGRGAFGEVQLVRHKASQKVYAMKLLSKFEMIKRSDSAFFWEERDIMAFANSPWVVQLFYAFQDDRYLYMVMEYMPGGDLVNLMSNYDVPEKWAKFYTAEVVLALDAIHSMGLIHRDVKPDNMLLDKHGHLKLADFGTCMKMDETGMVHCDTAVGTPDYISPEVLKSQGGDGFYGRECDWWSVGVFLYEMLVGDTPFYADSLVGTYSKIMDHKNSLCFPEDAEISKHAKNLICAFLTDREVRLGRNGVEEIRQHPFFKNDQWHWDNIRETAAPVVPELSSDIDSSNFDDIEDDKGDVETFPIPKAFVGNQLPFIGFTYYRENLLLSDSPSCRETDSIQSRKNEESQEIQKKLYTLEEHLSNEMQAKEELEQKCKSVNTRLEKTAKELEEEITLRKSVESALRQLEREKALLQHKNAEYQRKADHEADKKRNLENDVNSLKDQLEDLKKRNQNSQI

As for `CC1CN(c2ncc(Cl)c(Nc3ccc4[nH]ncc4c3)n2)CC(C)N1` (stereo not shown) [Example 189, N-(5-chloro-2-(3,5-dimethylpiperazin-1-yl)pyrimidin-4-yl)-1H-indazol-5-amine], in test [1] (setting [4]), the inhibition at 10 µM was found to be 33.4%. Also, the IC50 in test [1] (setting [5]) came out at 637 nM. The inhibition at 0.5 µM in test [2] turned out to be 14%; in test [3], 18%.
Turning to `Cc1cnc(N2CCNCC(C)C2)nc1Nc1ccc2[nH]ncc2c1` (stereo not shown) [Example 196, N-(5-methyl-2-(6-methyl-1,4-diazepan-1-yl)pyrimidin-4-yl)-1H-indazol-5-amine], the inhibition at 1 µM in test [1] (Rattus norvegicus, A7R5, A7R5 cells, 1 μM compound, read-out: pMLC % inh A7R5 @ [conc]) is 17.6%. In addition, the inhibition at 0.5 µM in test [2] worked out at 39%; in test [3], 37%.
As to `c1cc(Nc2ccc3[nH]ncc3c2)nc(N2CCC3(CCNCC3)C2)n1` [Example 202, N-(2-(2,8-diazaspiro[4.5]decan-2-yl)pyrimidin-4-yl)-1H-indazol-5-amine], the inhibition at 10 µM in test [1] (setting [4]) turned out to be 13.8%. The values for the inhibition at 3 µM in test [2] and in test [3] were 88.3% and 88.4%, respectively.
`CC1CN(c2nccc(Nc3ccc4[nH]ncc4c3)n2)CCCN1` (stereo not shown) [Example 203, N-(2-(3-methyl-1,4-diazepan-1-yl)pyrimidin-4-yl)-1H-indazol-5-amine]: the inhibition at 10 µM in test [1] (setting [4]) is 63.5%. Also, the IC50 in test [1] (setting [5]) is 561 nM; in test [2] (setting [6]), 57 nM; in test [3] (setting [6]), 46 nM. Besides, the values for the inhibition at 3 µM in test [2] and in test [3] were 98% and 89.1%, respectively.
For the compound `c1cc(Nc2ccc3[nH]ncc3c2)nc(N2CC3CNCC3C2)n1` (stereo not shown) [Example 210, N-(2-(hexahydropyrrolo[3,4-c]pyrrol-2(1H)-yl)pyrimidin-4-yl)-1H-indazol-5-amine], the inhibition at 10 µM in test [1] (setting [4]) turned out to be 73.4%. The IC50 in test [1] (setting [5]) is 589 nM. The inhibition at 3 µM was 0% in test [2] and 41.9% in test [3].
Turning to `CC1CN(c2nccc(Nc3ccc4[nH]ncc4c3)n2)CCN1` (stereo not shown) [Example 225, N-(2-(3-methylpiperazin-1-yl)pyrimidin-4-yl)-1H-indazol-5-amine], in test [1] (setting [4]), the inhibition at 10 µM came to 78%. For the same compound, the IC50 stood at 532 nM in test [1] (setting [5]) and 98 nM in test [2] (setting [6]). Also, the inhibition at 3 µM in test [2] is 98.3%; in test [3] it was 80.9%.
For the compound `N[C@@H]1CCN(c2nccc(Nc3ccc4[nH]ncc4c3)n2)C1` [Example 231, (R)—N-(2-(3-aminopyrrolidin-1-yl)pyrimidin-4-yl)-1H-indazol-5-amine], in test [1] (A7R5 cells, 10 μM compound), the “pMLC % inh A7R5 @ [conc]” value is 94.24, % and 63.4%. The IC50 was 335 nM in test [1] (setting [7]), 276 nM in test [2] and above 10000 nM in test [3].
Take `CC1CNCCN1c1nccc(Nc2ccc3[nH]ncc3c2)n1` (stereo not shown) [Example 232, N-(2-(2-methylpiperazin-1-yl)pyrimidin-4-yl)-1H-indazol-5-amine]: the inhibition at 10 µM in test [1] (setting [4]) is 93%. Further, the IC50 in test [1] (setting [5]) was 129 nM; in test [2] (setting [6]), 22 nM; in test [3] (setting [6]), 75 nM. Besides, the inhibition at 3 µM in test [2] came out at 104%; in test [3] it was 100%.
In the case of `COc1cccc(CNC2CCCN(c3nccc(Nc4ccc5[nH]ncc5c4)n3)C2)c1` (stereo not shown) [Example 233, N-(2-(3-((3-methoxybenzyl)amino)piperidin-1-yl)pyrimidin-4-yl)-1H-indazol-5-amine], the IC50 in test [1] (setting [7]) is 712 nM; in test [2], 217 nM; in test [3] it was above 10000 nM. Also, in test [1] (setting [4]), the inhibition at 10 µM worked out at 95.1%.
`CC1CNCCCN1c1nccc(Nc2ccc3[nH]ncc3c2)n1` (stereo not shown) [Example 238, N-(2-(2-methyl-1,4-diazepan-1-yl)pyrimidin-4-yl)-1H-indazol-5-amine]: the inhibition at 10 µM in test [1] (setting [4]) worked out at 70%. Also, the IC50 in test [1] (setting [5]) was determined as 215 nM; in test [2] (setting [6]), 17 nM; in test [3] (setting [6]), 55 nM.

The term IC50 denotes the concentration that gives 50% inhibition.

Values taken from patent US11613531B2, “Inhibitors of RHO associated coiled-coil containing protein kinase” (Kadmon Corporation, LLC, priority 2017, dated 2023).
